Like-named read-outs stand apart in the source and are kept apart here. *1 amine or outer side, *2 acyl side, *3 side chain or, on linkers, in order; H or OH if unused. Where a SMILES comes first, the peptide text is derived from it. Side-chain parts run from the residue outwards. [ ]: non-standard residue; d: D form. The star is where a group is joined. Argψ(CH2NH)TyrNH2 = N=C(N)NCCC[C@@H](CN[C@@H](Cc1ccc(O)cc1)C(N)=O)N*; C20 diacid = O=C(O)CCCCCCCCCCCCCCCCCCC(=O)*; C18 diacid = O=C(O)CCCCCCCCCCCCCCCCC(=O)*; γGlu = O=C(O)[C@H](CCC(=O)[*:2])N[*:1]; εLys = N[C@@H](CCCCN[*:1])C(=O)[*:2]; Aib = CC(C)(N)C(=O)O

Holding throughout (format): cell-based
One assay deals with T1, hGLP1R (Homo sapiens, UniProt P43220).
T1 construct: expressed in transfected cells; host or cells: HEK-293 CRE-luciferase reporter cells
T1 sequence (P43220 24-463): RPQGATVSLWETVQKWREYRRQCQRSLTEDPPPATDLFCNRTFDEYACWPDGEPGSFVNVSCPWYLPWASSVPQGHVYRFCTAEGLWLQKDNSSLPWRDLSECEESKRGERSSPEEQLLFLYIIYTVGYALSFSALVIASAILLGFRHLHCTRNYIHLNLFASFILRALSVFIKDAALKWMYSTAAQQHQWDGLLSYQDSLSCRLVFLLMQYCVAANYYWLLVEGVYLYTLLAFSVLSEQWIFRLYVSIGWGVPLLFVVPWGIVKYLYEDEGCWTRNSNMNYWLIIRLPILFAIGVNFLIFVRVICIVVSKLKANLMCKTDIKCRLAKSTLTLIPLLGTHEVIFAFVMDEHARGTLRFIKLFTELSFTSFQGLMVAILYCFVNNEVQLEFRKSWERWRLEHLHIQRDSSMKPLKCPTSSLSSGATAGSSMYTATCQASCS
The experiment in a line: hGLP1R CreLuc assay in 0.5% and 100% plasma (HEK-293 CRE-luciferase reporter cells). The note with it: HEK-293 reporter cells. (In a reporter assay the amount or activity of a reporter protein is the signal.)

For the next assay, the target named is T2, hNPY2R (Homo sapiens, UniProt P49146).
T2 construct: expressed in transfected cells; host or cells: HEK-293 CRE-luciferase reporter cells
T2 sequence (P49146 1-381): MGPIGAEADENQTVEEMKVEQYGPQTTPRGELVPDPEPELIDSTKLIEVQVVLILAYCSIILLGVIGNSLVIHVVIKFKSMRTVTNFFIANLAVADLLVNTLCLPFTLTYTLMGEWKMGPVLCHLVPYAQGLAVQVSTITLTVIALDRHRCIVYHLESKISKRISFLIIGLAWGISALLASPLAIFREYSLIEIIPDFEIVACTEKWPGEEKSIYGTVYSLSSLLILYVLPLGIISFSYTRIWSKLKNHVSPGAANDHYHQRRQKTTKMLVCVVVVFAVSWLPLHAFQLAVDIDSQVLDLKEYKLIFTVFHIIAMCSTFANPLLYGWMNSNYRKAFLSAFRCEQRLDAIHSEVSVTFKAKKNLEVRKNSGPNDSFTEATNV
The experiment in a line: hNPY2R CreLuc assay in 0.5% and 100% plasma (HEK-293 CRE-luciferase reporter cells). The note with it: HEK-293 reporter cells.

In another assay the target is T3, hGIPR (Homo sapiens, UniProt P48546).
T3 construct: expressed in transfected cells; host or cells: CHO CRE-luciferase reporter cells
T3 sequence (P48546 22-466): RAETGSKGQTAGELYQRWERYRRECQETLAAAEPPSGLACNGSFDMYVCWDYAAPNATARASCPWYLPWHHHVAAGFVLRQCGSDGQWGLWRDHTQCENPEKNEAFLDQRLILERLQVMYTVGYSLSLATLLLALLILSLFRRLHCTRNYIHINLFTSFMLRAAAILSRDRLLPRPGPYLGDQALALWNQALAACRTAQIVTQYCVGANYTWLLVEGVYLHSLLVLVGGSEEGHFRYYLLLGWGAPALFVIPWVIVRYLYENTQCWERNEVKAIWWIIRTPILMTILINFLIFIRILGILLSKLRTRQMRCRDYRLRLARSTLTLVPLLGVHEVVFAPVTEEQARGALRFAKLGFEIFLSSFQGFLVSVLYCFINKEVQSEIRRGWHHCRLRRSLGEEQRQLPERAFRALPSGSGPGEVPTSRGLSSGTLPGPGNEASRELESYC
The experiment in a line: hGIPR CreLuc assay in 0.5% and 100% plasma (CHO CRE-luciferase reporter cells).

[1] abbreviates: 0.5% human plasma, read-out: hGLP1R 0.5% hP.
Setting [2] is: 100% human plasma, read-out: hGLP1R 100% hP.
The mark [3] stands for this setting: 0.5% human plasma, read-out: hNPY2R 0.5% hP.
Setting [4] is: 0.5% human plasma, read-out: hGIPR 0.5% hP.
The mark [5] stands for this setting: 100% human plasma, read-out: hGIPR 100% hP.
Where [6] appears, read: 100% human plasma, read-out: hNPY2R 100% hP.

`CC[C@H](C)[C@H](NC(=O)[C@H](CC(C)C)NC(=O)[C@H](Cc1c[nH]cn1)NC(=O)[C@H](CCCNC(=N)N)NC(=O)[C@@H](NC(=O)[C@H](Cc1ccccc1)NC(=O)[C@H](C)NC(=O)C(C)(C)NC(=O)[C@H](CCC(N)=O)NC(=O)[C@H](C)NC(=O)[C@H](CCC(N)=O)NC(=O)[C@H](CCCCN)NC(=O)[C@H](CC(=O)O)NC(=O)[C@H](CC(C)C)NC(=O)C(C)(C)NC(=O)[C@@H](NC(=O)[C@H](CO)NC(=O)[C@H](Cc1ccc(O)cc1)NC(=O)[C@H](CC(=O)O)NC(=O)[C@H](CO)NC(=O)[C@@H](NC(=O)[C@H](Cc1ccccc1)NC(=O)[C@@H](NC(=O)CNC(=O)[C@H](CCC(=O)O)NC(=O)C(C)(C)NC(=O)[C@@H](N)Cc1ccc(O)cc1)[C@@H](C)O)[C@@H](C)O)[C@@H](C)CC)C(C)C)C(=O)N[C@@H](CC(N)=O)C(=O)N[C@@H](CCCCNC(=O)[C@@H](N)CCCCNC(=O)CC[C@H](NC(=O)CC[C@H](NC(=O)CC[C@H](NC(=O)CC[C@H](NC(=O)CC[C@H](NC(=O)CC[C@H](NC(=O)CC[C@H](NC(=O)CCCCCCCCCCCCCCCCCCC(=O)O)C(=O)O)C(=O)O)C(=O)O)C(=O)O)C(=O)O)C(=O)O)C(=O)O)C(=O)NC(C)(C)C(=O)N[C@H](C(=O)N[C@@H](CCCNC(=N)N)C(=O)N[C@@H](CCC(N)=O)C(=O)N[C@@H](CCCNC(=N)N)CN[C@@H](Cc1ccc(O)cc1)C(N)=O)[C@@H](C)O` [Compound 16, Y-Aib-E-G-T-F-T-S-D-Y-S-I-Aib-L-D-K-Q-A-Q-Aib-A-F-V-R-H-L-I-N-K(1,3)-Aib-T-R-Q-dOR-Y-NH2.C20DA-gGlu-gGlu-gGlu-gGlu-gGlu-gGlu-gGlu-eLys(1,2)] (H-Y[Aib]EGTFTSDYSI[Aib]LDKQAQ[Aib]AFVRHLINK([εLys-γGlu-γGlu-γGlu-γGlu-γGlu-γGlu-γGlu-C20 diacid])[Aib]TRQ-{Argψ(CH2NH)TyrNH2}): the EC50 at hGLP1R (setting [1]) was 0.7 nM; at hGLP1R (setting [2]) it was 1.8 nM; on hNPY2R (setting [3]) it was 6.4 nM; on hGIPR (setting [4]), 0.5 nM; on hGIPR (setting [5]), 2 nM.

For the compound `CC[C@H](C)[C@H](NC(=O)[C@H](Cc1ccccc1)NC(=O)[C@H](C)NC(=O)C(C)(C)NC(=O)[C@H](CCC(N)=O)NC(=O)[C@H](C)NC(=O)[C@H](CCC(N)=O)NC(=O)[C@H](CCCCN)NC(=O)[C@H](CC(=O)O)NC(=O)[C@H](CC(C)C)NC(=O)C(C)(C)NC(=O)[C@@H](NC(=O)[C@H](CO)NC(=O)[C@H](Cc1ccc(O)cc1)NC(=O)[C@H](CC(=O)O)NC(=O)[C@H](CO)NC(=O)[C@@H](NC(=O)[C@H](Cc1ccccc1)NC(=O)[C@@H](NC(=O)CNC(=O)[C@H](CCC(=O)O)NC(=O)C(C)(C)NC(=O)[C@@H](N)Cc1ccc(O)cc1)[C@@H](C)O)[C@@H](C)O)[C@@H](C)CC)C(=O)N[C@@H](CCCNC(=N)N)C(=O)N[C@@H](Cc1c[nH]cn1)C(=O)N[C@@H](CC(C)C)C(=O)N[C@H](C(=O)N[C@@H](CC(N)=O)C(=O)N[C@@H](CCCCNC(=O)[C@@H](N)CCCCNC(=O)CC[C@H](NC(=O)CC[C@H](NC(=O)CC[C@H](NC(=O)CC[C@H](NC(=O)CC[C@H](NC(=O)CC[C@H](NC(=O)CCCCCCCCCCCCCCCCCCC(=O)O)C(=O)O)C(=O)O)C(=O)O)C(=O)O)C(=O)O)C(=O)O)C(=O)NC(C)(C)C(=O)N[C@H](C(=O)N[C@@H](CCCNC(=N)N)C(=O)N[C@@H](CCC(N)=O)C(=O)N[C@@H](CCCNC(=N)N)C(=O)N[C@@H](Cc1ccc(O)cc1)C(N)=O)[C@@H](C)O)[C@@H](C)CC` [Compound 81, Y-Aib-E-G-T-F-T-S-D-Y-S-I-Aib-L-D-K-Q-A-Q-Aib-A-F-I-R-H-L-I-N-K(1,3)-Aib-T-R-Q-R-Y-NH2.C20DA-gGlu-gGlu-gGlu-gGlu-gGlu-gGlu-eLys(1,2)], the EC50 at hGLP1R (setting [1]) was found to be 0.6 nM; at hGLP1R (setting [2]), 3.8 nM; on hNPY2R (setting [3]) it was 7.2 nM; on hGIPR (setting [4]) it was 0.5 nM.

For `CC[C@H](C)[C@H](NC(=O)[C@H](CC(C)C)NC(=O)[C@H](Cc1c[nH]cn1)NC(=O)[C@H](CCCNC(=N)N)NC(=O)[C@@H](NC(=O)[C@H](Cc1ccccc1)NC(=O)[C@H](C)NC(=O)C(C)(C)NC(=O)[C@H](CCC(N)=O)NC(=O)[C@H](C)NC(=O)[C@H](CCC(N)=O)NC(=O)[C@H](CCCCN)NC(=O)[C@H](CCC(=O)O)NC(=O)[C@H](CC(C)C)NC(=O)C(C)(C)NC(=O)[C@@H](NC(=O)[C@H](CO)NC(=O)[C@H](Cc1ccc(O)cc1)NC(=O)[C@H](CC(=O)O)NC(=O)[C@H](CO)NC(=O)[C@@H](NC(=O)[C@H](Cc1ccccc1)NC(=O)[C@@H](NC(=O)CNC(=O)[C@H](CCC(=O)O)NC(=O)C(C)(C)NC(=O)[C@@H](N)Cc1ccc(O)cc1)[C@@H](C)O)[C@@H](C)O)[C@@H](C)CC)C(C)C)C(=O)N[C@@H](CC(N)=O)C(=O)N[C@@H](CCCCNC(=O)[C@@H](N)CCCCNC(=O)CC[C@H](NC(=O)CC[C@H](NC(=O)CC[C@H](NC(=O)CC[C@H](NC(=O)CC[C@H](NC(=O)CC[C@H](NC(=O)CCCCCCCCCCCCCCCCC(=O)O)C(=O)O)C(=O)O)C(=O)O)C(=O)O)C(=O)O)C(=O)O)C(=O)NC(C)(C)C(=O)N[C@H](C(=O)N[C@@H](CCCNC(=N)N)C(=O)N[C@@H](CCC(N)=O)C(=O)N[C@@H](CCCNC(=N)N)C(=O)N[C@@H](Cc1ccc(F)cc1)C(N)=O)[C@@H](C)O` [Compound 86, Y-Aib-E-G-T-F-T-S-D-Y-S-I-Aib-L-E-K-Q-A-Q-Aib-A-F-V-R-H-L-I-N-K(1,3)-Aib-T-R-Q-R-Phe4F-NH2.C18DA-gGlu-gGlu-gGlu-gGlu-gGlu-gGlu-eLys(1,2)], the EC50 came out at 0.8 nM on hGLP1R (setting [1]), 162 nM at hNPY2R (setting [6]), 0.3 nM at hGIPR (setting [4]) and 5.9 nM on hGIPR (setting [5]).

For `CC[C@H](C)[C@H](NC(=O)[C@H](CC(C)C)NC(=O)[C@H](Cc1c[nH]cn1)NC(=O)[C@H](CCCNC(=N)N)NC(=O)[C@@H](NC(=O)[C@H](Cc1ccccc1)NC(=O)[C@H](C)NC(=O)C(C)(C)NC(=O)[C@H](CCC(N)=O)NC(=O)[C@H](C)NC(=O)[C@H](CCC(N)=O)NC(=O)[C@H](CCCCN)NC(=O)[C@H](CCC(=O)O)NC(=O)[C@H](CC(C)C)NC(=O)C(C)(C)NC(=O)[C@@H](NC(=O)[C@H](CO)NC(=O)[C@H](Cc1ccc(O)cc1)NC(=O)[C@H](CC(=O)O)NC(=O)[C@H](CO)NC(=O)[C@@H](NC(=O)[C@H](Cc1ccccc1)NC(=O)[C@@H](NC(=O)CNC(=O)[C@H](CCC(=O)O)NC(=O)C(C)(C)NC(=O)[C@@H](N)Cc1ccc(O)cc1)[C@@H](C)O)[C@@H](C)O)[C@@H](C)CC)C(C)C)C(=O)N[C@@H](CC(N)=O)C(=O)N[C@@H](CCCCNC(=O)CC[C@H](NC(=O)CC[C@H](NC(=O)CC[C@H](NC(=O)CC[C@H](NC(=O)CC[C@H](NC(=O)CCCCCCCCCCCCCCCCC(=O)O)C(=O)O)C(=O)O)C(=O)O)C(=O)O)C(=O)O)C(=O)NC(C)(C)C(=O)N[C@H](C(=O)N[C@@H](CCCNC(=N)N)C(=O)N[C@@H](CCC(N)=O)C(=O)N[C@@H](CCCNC(=N)N)CN[C@@H](Cc1ccc(O)cc1)C(N)=O)[C@@H](C)O` [Compound 96, Y-Aib-E-G-T-F-T-S-D-Y-S-I-Aib-L-E-K-Q-A-Q-Aib-A-F-V-R-H-L-I-N-K(1,3)-Aib-T-R-Q-dOR-Y-NH2.C18DA-gGlu-gGlu-gGlu-gGlu-gGlu(1,2)] (H-Y[Aib]EGTFTSDYSI[Aib]LEKQAQ[Aib]AFVRHLINK([γGlu-γGlu-γGlu-γGlu-γGlu-C18 diacid])[Aib]TRQ-{Argψ(CH2NH)TyrNH2}), the EC50 came out at 0.9 nM at hGLP1R (setting [1]); 1.7 nM at hGLP1R (setting [2]); 125 nM at hNPY2R (setting [6]); 0.3 nM on hGIPR (setting [4]); 1.7 nM on hGIPR (setting [5]).

The record behind these values is patent US20250382344A1, “Soluble GLP1/GIP/NPY2 Receptor Triple Agonists” (Boehringer Ingelheim International GmH, priority 2024, published 2025).
